Assay results from patent US20110160216A1, “Thymidylate Synthase Haplotype is Associated with Tumor Recurrence in Stage II and Stage III Colon Cancer Patients” (UNIVERSITY OF SOUTHEM CALIFORNIA, priority 2008, published 2011).
Marks after values point to notes of the source that are not given here.

System: locally advanced (Stage II/III) colon cancer
Assay: Retrospective study of time to tumor recurrence (TTR) after 5-FU-based adjuvant chemotherapy, by regimen and by TS/MTHFR genotype
Type: in vivo, human
Method: One hundred and ninety-seven (n=197) with locally advanced colon cancer who were treated with 5-FU-based adjuvant chemotherapy [bolus 5-FU: n=30, (15%); infusimal 5-FU: […], (85%)] either at the University of Southern California/Norris Comprehensive Cancer Center (USC/NCCC) or at the Los Angeles County/University of Southern California Medical Center (LAC/USCMC), between 1987 and 2007, were eligible for the present study. This study was conducted at the USC/NCCC and approved by the Institutional Review Board of the University of Southern California for Medical Sciences. Patient data were collected retrospectively through chart review. Informed consent was signed by all patients involved in the study.
Whole blood was collected and genomic DNA was extracted using the QIAamp kit (Qiagen, CA, USA). Samples were tested using polymerase chain reaction restriction fragment length polymorphism (PCR-RFLP) technique. Briefly, forward and reverse primers were used for PCR amplification (see Table 7), PCR products were digested by restriction enzymes (New England Biolab, Massachusetts, USA) and alleles were separated using a 4% NuSieve ethidium bromide stained agarose gel. TS and MTHFR polymorphisms were tested by PCR, followed by allele-specific restriction enzyme digestion method, as previously described (Mandola, M. V. et al. (2003) Cancer Res 63:2898-904; Mandola, M. V. et al. (2004) Pharmacogenetics 14:319-27; Markan, S. et al. (2007) Mol Cell Biochem 302:125-31; Stern, L. L. et al. (2000) Cancer Epidemiol Biomarkers Prev 9:849-53).
The primary endpoint in this study was time to tumor recurrence (TTR) in Stage II/III colon cancer patients, which was defined as the time from the date of diagnosis of Stage II/III colon cancer to the date of first recurrence, […], or until last contact if the patient was free of any tumor recurrence at the time of last contact. If a patient had not recurred, then TTR was censored at the time of death or at the last follow-up. The associations of time to tumor recurrence with patient's clinico-pathologic characteristics (age, sex, race, Stage, tumor grade, T-stage, N-stage and type of adjuvant chemotherapy) were assessed using univariate survival analyses (log-rank test).
Polymorphisms of TS and MTHFR were coded as categorical variables according to their genotypes. The associations between TS and MTHFR polymorphisms and time to recurrence were examined using Kaplan-Meier curves and log-rank test. The distributions of polymorphisms across demographic characteristics were examined using Fisher's exact test. In the univariate survival analysis, the Pike estimate of relative risk (RR) and its associated 95% confidence interval (95% CI) was based on the log-rank test.

[1] = patients receiving 5-FU only, MTHFR A + 1298C A/A
[2] = patients receiving 5-FU only, MTHFR A + 1298C A/C
[3] = patients receiving 5-FU only, MTHFR A + 1298C C/C
[4] = patients receiving 5-FU only, MTHFR C + 677T C/C
[5] = patients receiving 5-FU only, MTHFR C + 677T C/T
[6] = patients receiving 5-FU only, MTHFR C + 677T T/T
[7] = patients receiving 5-FU only, TS-3′UTR +6b/−6bp
[8] = patients receiving 5-FU only, TS-3′UTR +6bp/+6bP
[9] = patients receiving 5-FU only, TS-3′UTR −6bp/−6bp
[10] = patients receiving 5-FU only, TS-5′UTR 2R/2R
[11] = patients receiving 5-FU only, TS-5′UTR 2R/3R
[12] = patients receiving 5-FU only, TS-5′UTR 3R/36
[13] = patients receiving 5-FU only, TS-5′UTR/GC 2R/2R
[14] = patients receiving 5-FU only, TS-5′UTR/GC 2R/3(G)
[15] = patients receiving 5-FU only, TS-5′UTR/GC 2R/3R(C)
[16] = patients receiving 5-FU only, TS-5′UTR/GC 3R(C)/3R(C)
[17] = patients receiving 5-FU only, TS-5′UTR/GC 3R(G)/3R(C)
[18] = patients receiving 5-FU only, TS-5′UTR/GC 3R(G)/3R(G)

O=c1[nH]cc(F)c(=O)[nH]1 [5-FU, 5-Fluorouracil]
Median time to recurrence (TTR) years (95% CI) (all patients grouped by adjuvant therapy): 6.6 years
Probablility ± SE of 3-year recurrence (all patients grouped by adjuvant therapy, Greenwood SE): 0.35 ± 0.04
Median time to recurrence (TTR) years (95% CI) [1]: > 16.8^b years
Probability ± SE of 3-year recurrence [1]: 0.31 ± 0.06
Median time to recurrence (TTR) years (95% CI) [2]: 5.9 years
Probability ± SE of 3-year recurrence [2]: 0.35 ± 0.08
Relative risk (patients receiving 5-FU only, MTHFR A + 1298C A/C vs A/A (Reference)): 1.33
Median time to recurrence (TTR) years (95% CI) [3]: 6.6 years
Probability ± SE of 3-year recurrence [3]: 0.40 ± 0.22
Relative risk (patients receiving 5-FU only, MTHFR A + 1298C C/C vs A/A (Reference)): 1.50
Median time to recurrence (TTR) years (95% CI) [4]: 6.6 years
Probability ± SE of 3-year recurrence [4]: 0.26 ± 0.07
Median time to recurrence (TTR) years (95% CI) [5]: 5.4 years
Probability ± SE of 3-year recurrence [5]: 0.41 ± 0.07
Relative risk (patients receiving 5-FU only, MTHFR C + 677T C/T vs C/C (Reference)): 1.30
Median time to recurrence (TTR) years (95% CI) [6]: > 7.4^b years
Probability ± SE of 3-year recurrence [6]: 0.21 ± 0.09
Relative risk (patients receiving 5-FU only, MTHFR C + 677T T/T vs C/C (Reference)): 0.55
Median time to recurrence (TTR) years (95% CI) [7]: 5.7 years
Probability ± SE of 3-year recurrence [7]: 0.34 ± 0.07
Relative risk (patients receiving 5-FU only, TS-3′UTR +6b/−6bp vs +6bp/+6bP (Reference)): 1.33
Median time to recurrence (TTR) years (95% CI) [8]: > 16.8^b years
Probability ± SE of 3-year recurrence [8]: 0.28 ± 0.06
Median time to recurrence (TTR) years (95% CI) [9]: > 7.7^b years
Probability ± SE of 3-year recurrence [9]: 0.43 ± 0.12
Relative risk (patients receiving 5-FU only, TS-3′UTR −6bp/−6bp vs +6bp/+6bP (Reference)): 1.36
Median time to recurrence (TTR) years (95% CI) [10]: > 16.8^b years
Probability ± SE of 3-year recurrence [10]: 0.20 ± 0.08
Median time to recurrence (TTR) years (95% CI) [11]: 4.8 years
Probability ± SE of 3-year recurrence [11]: 0.42 ± 0.07
Relative risk (patients receiving 5-FU only, TS-5′UTR 2R/3R vs 2R/2R (Reference)): 1.94
Median time to recurrence (TTR) years (95% CI) [12]: 6.6 years
Probability ± SE of 3-year recurrence [12]: 0.29 ± 0.08
Relative risk (patients receiving 5-FU only, TS-5′UTR 3R/36 vs 2R/2R (Reference)): 1.43
Median time to recurrence (TTR) years (95% CI) [13]: > 16.8^b years
Probability ± SE of 3-year recurrence [13]: 0.20 ± 0.08
Median time to recurrence (TTR) years (95% CI) [14]: 4.8 years
Probability ± SE of 3-year recurrence [14]: 0.44 ± 0.10
Relative risk (patients receiving 5-FU only, TS-5′UTR/GC 2R/3(G) vs 2R/2R (Reference)): 1.81
Median time to recurrence (TTR) years (95% CI) [15]: 5.9 years
Probability ± SE of 3-year recurrence [15]: 0.38 ± 0.10
Relative risk (patients receiving 5-FU only, TS-5′UTR/GC 2R/3R(C) vs 2R/2R (Reference)): 1.79
Median time to recurrence (TTR) years (95% CI) [16]: > 13.3^b years
Probability ± SE of 3-year recurrence [16]: 0.17 ± 0.11
Relative risk (patients receiving 5-FU only, TS-5′UTR/GC 3R(C)/3R(C) vs 2R/2R (Reference)): 0.46
Median time to recurrence (TTR) years (95% CI) [17]: 5.7 years
Probability ± SE of 3-year recurrence [17]: 0.24 ± 0.12
Relative risk (patients receiving 5-FU only, TS-5′UTR/GC 3R(G)/3R(C) vs 2R/2R (Reference)): 1.44
Median time to recurrence (TTR) years (95% CI) [18]: 1.4 years
Probability ± SE of 3-year recurrence [18]: 0.61 ± 0.17
Relative risk (patients receiving 5-FU only, TS-5′UTR/GC 3R(G)/3R(G) vs 2R/2R (Reference)): 4.74
